Measurements published in US20210276971A1, “TRIAZAMACROCYCLE-DERIVED CHELATOR COMPOSITIONS FOR COORDINATION OF IMAGING AND THERAPY METAL IONS AND METHODS OF USING SAME” (The Research Foundation for The State University of New York, priority 2018, published 2021).

Legend:
[1] = Plasma stability of ^44Sc complexes (37° C.); format: in vitro ADME, Rat; conditions: for % complex stability: Rat Plasma, 37°
[2] = EDTA challenge of ^44Sc complexes (10× excess EDTA, 37° C.); format: physicochemical; conditions: for % complex stability: EDTA, 10× eq, 37° C.; for kinetic inertness (transchelation): presence of 10×EDTA
Procedure: Challenge experiments. To measure relative complex stability, 10 uL of ligand solution at 100000 ng/mL was added to 100 uL EDTA to produce 10× excess EDTA. Mixtures were incubated at 37° C. for 1 h. To evaluate plasma stability, 10 uL of ligand solution at 100000 ng/mL added to 50 uL mouse plasma. Incubated at 37° C. for 1 h. Tubes were intermittently vortexed and 2 uL was removed at the designated timepoints and spotted onto TLC plates.

[3] = HPLC check of interconversion of metal-complex diastereomers; format: physicochemical; conditions: HPLC-separated peaks of Sc(III)/Lu(III) complexes, reinjected
Procedure: FIG. 13: Sc-Overlay and Lu-Overlay—A stock solution of PICAGA (2 mg/mL) in DI water was prepared. 1.1 equivalents of metal added to the ligand. ScCl3.6H2O or Lu(ClO4)3.6H2O. pH was adjusted to 6-7 with 5 M NaOH. Complex solutions were injected on HPLC. Each peak associated with the PICAGA (5.7 and 5.9 min) was collected and reinjected at 20 min.
A direct DO3A-monoamide DUPA conjugate analogue was also synthesized. The fully assembled conjugates DOTA-DUPA and picaga-DUPA were fully deprotected and characterized using ^1H-, ^13C-NMR and mass spectrometry. Following complete characterization, the non-radioactive scandium complexes were formed and characterized using HPLC-analysis. As the glutarate arm is introduced as the pure S-entantiomer, where the alpha carbon retains the chiral alpha carbon and subsequently introduces chirality to the ligand.

With O=C(O)CN1CCN(CC(=O)O)CCN(CC(=O)O)CCN(CC(=O)O)CC1 [DOTA, reference compound] the “% complex stability” value ([1]; t = 10 min) was 74.8 ± 1.8%, the “% complex stability” value ([1]; t = 30 min) was 74.4 ± 0.7% and the “% complex stability” value ([1]; t = 60 min) was 75.5 ± 0.9%. For the same compound, the “% complex stability” value ([2]; t = 0) was 9.41%, the “% complex stability” value ([2]; t = 10 min) was 74.4 ± 0.4% and the “% complex stability” value ([2]; t = 30 min) was 73.3 ± 0.5%. For the same compound, the “% complex stability” value ([2]; t = 60 min) was 74.7 ± 0.4%.
For O=C(O)CN1CCN(CC(=O)O)CCN(Cc2cccc(C(=O)O)n2)CC1 [MONOPIC, 6-{[4,7-Bis(carboxymethyl)-1,4,7-triazonan-1-yl]methyl}-2-pyridinecarboxylic acid], the “% complex stability” value ([1]; t = 10 min) was 90.1 ± 0.8%, the “% complex stability” value ([1]; t = 30 min) was 91.0 ± 0.2% and the “% complex stability” value ([1]; t = 60 min) was 91.6 ± 0.3%. The “kinetic inertness (transchelation)” value ([1]; rat plasma) was “no detectable transchelation”, the “% complex stability” value ([2]; t = 0) was 91.4% and the “% complex stability” value ([2]; t = 10 min) was 91.5 ± 0.8%. For the same compound, the “% complex stability” value ([2]; t = 30 min) was 91.4 ± 0.8%, the “% complex stability” value ([2]; t = 60 min) was 90.5 ± 0.6% and the “kinetic inertness (transchelation)” value [2] was “no detectable transchelation”.
In the case of O=C(O)CC[C@H](NC(=O)N[C@@H](CCC(=O)NCCCCCNC(=O)CCC(C(=O)O)N1CCN(CC(=O)O)CCN(Cc2cccc(C(=O)O)n2)CC1)C(=O)O)C(=O)O (stereo in doubt) [PICAGA, 2-{3-[(R)-1-Carboxy-4-[5-(4-carboxy-4-{7-(carboxymethyl)-4-[(6-carboxy-2-pyridyl)methyl]-1,4,7-triazonan-1-yl}butyrylamino)pentylamino]-4-oxobutyl]ureido}glutaric acid], the “interconversion of complex diastereomers” value [3] is reported as “limited interconversion” and the “interconversion of complex diastereomers” value ([3]; listed as picaga-DUPA) is reported as “do not interconvert even after 12 hours”.
With O=C(O)CN1CCN(Cc2cccc(C(=O)O)n2)CCN(Cc2cccc(C(=O)O)n2)CC1 [NO1A2PIC] the “% complex stability” value ([1]; t = 10 min) was 98.9 ± 0.3%, the “% complex stability” value ([1]; t = 30 min) was 98.3 ± 0.1% and the “% complex stability” value ([1]; t = 60 min) was 97.4 ± 0.4%. For the same compound, the “% complex stability” value ([2]; t = 0) was 90.2%, the “% complex stability” value ([2]; t = 10 min) was 77.4 ± 5.2% and the “% complex stability” value ([2]; t = 30 min) was 67.8 ± 0.9%. The “% complex stability” value ([2]; t = 60 min) was 51.5 ± 0.4% and the “kinetic inertness (transchelation)” value [2] was “diminished complex inertness”.
